Measured values from patent publication US8334261B2, “Osteopenia animal model” (Oriental Yeast Co., Ltd., priority 2006, dated 2012).

Assays:
[1] = tested on: GST-RANKL-administered 7-week-old female C57BL/6N mice; experiment: Evaluation of RANKL-signal-inhibiting compound (LFM-A13) in osteopenia mouse models; assay type: in vivo
Method: GST or GST-RANKL (20 μg) was administered 3 times to 7-week-old female C57BL/6N mice every 24 hours. LFM-A13 (20 mg/kg body weigh) or physiological saline was administered thereto 1 hour before GST-RANKL administration. Measurement of the serum Ca concentration and bone morphology measurement was carried out 1.5 hours after the 3rd GST-RANKL administration. In addition, 3D image analysis was carried out with micro CT.

[2] = tested on: GST-RANKL-administered 7-week-old female C57BL/6 mice; experiment: Comparison of a plurality of bisphosphonates in GST-RANKL mice; assay type: in vivo, mouse; details: for dose at which the effects were exhibited: s.c. from the day before GST-RANKL
Method: GST-RANKL was intraperitoneally administered 3 times at 1 mg/kg every 24 hours. The femur, tibia, and serum were collected from each mouse 1.5 hours after the 3rd GST-RANKL administration. Measurement of TRAP-5b, calcium (Ca), and alkaline phosphatase (ALP) in the serum was carried out. Each femur was subjected to bone density measurement with pQCT and image analysis with micro CT.

[3] = tested on: GST-RANKL-administered, ovariectomized 7-week-old female C57BL/6N mice; experiment: Drug evaluation with a selective estrogen receptor modulator (raloxifene) in GST-RANKL/OVX mice; assay type: in vivo, mouse
Source text: In addition, PBS (i.p.) and ultrapure water (p.o.) were used as control substances for comparison with GST-RANKL and raloxifene, respectively, upon administration.
The serum collected from each mouse was subjected to measurement of serum bone resorption markers (Ca and TRAP-5b) and an osteogenesis marker (ALP). Each femur was subjected to measurement of the bone density, the bone mineral content, and the cortical bone thickness with pQCT at points 0.6, 0.8, 1.0 mm from the distal growth plate on the proximal side. In addition, image analysis was carried out with micro CT.

[4] = tested on: GST-RANKL-administered 7-week-old female C57BL/6 mice; experiment: Drug evaluation with bisphosphonate (risedronate) in GST-RANKL mice; assay type: in vivo, mouse
Method: Risedronate was separately administered via a subcutaneous route to groups of 7-week-old female C57BL/6 mice at doses of 3, 10, and 30 μg/kg every 24 hours from the day before GST-RANKL administration to the end of the experimentation. The femur and serum were collected from each mouse 1.5 hours after the 3rd administration of GST-RANKL. Measurement of TRAP-5b, calcium (Ca), and alkaline phosphatase (ALP) was carried out. Each femur was subjected to bone density measurement and image analysis with the use of pQCT.

[5] = tested on: GST-RANKL-administered 7-week-old female C57BL/6N mice; experiment: Evaluation of an osteoporosis therapeutic agent (risedronate) with GST-RANKL-administered mice; assay type: in vivo, mouse
Method: GST-RANKL (426 nmol) was intraperitoneally administered 3 times to groups of 7-week-old female C57BL/6N mice (5 to 6 individuals each) every 24 hours. An osteoporosis therapeutic agent (risedronate) was subcutaneously administered at 0.01 mg/kg every 24 hours from 3 days before GST-RANKL administration. Administration of the agent was continued to the end of the experimentation every 24 hours. The serum, femur, and tibia were collected from each mouse 1.5 hours after the 3rd administration of GST-RANKL. Bone resorption parameters (calcium, CTx, and TRAP-5b) and osteogenesis parameters (osteocalcin and ALP) in the serum were measured. The femur bone density was determined with the use of pQCT and micro CT. Measurement values were compared with those for a control group by the Dunnett method for testing.

[6] = tested on: 7-week-old female C57BL/6N mice; experiment: Production of osteopenia model mice with soluble RANKL; assay type: in vivo, mouse
Method: Soluble RANKL (produced by Peprotech) was intraperitoneally administered 3 times to groups of 7-week-old female C57BL/6N mice (10 individuals each) at doses of 57 and 426 nmol every 24 hours. The serum and femur were collected from each mouse 1.5 hours after the 3rd administration. Bone resorption markers and osteogenesis markers in the serum were measured. The bone density was measured with the use of pQCT at points 0.6, 0.8, and 1.0 mm from the distal growth plate on the proximal side of the femur.

[7] = raloxifene 1 or 10 mg/kg p.o. 14 days
[8] = combination of GST-RANKL and risedronate 0.01 mg/kg

## C/C(O)=C(\C#N)C(=O)Nc1cc(Br)ccc1Br [LFM-A13]
[1]; LFM-A13 20 mg/kg 1 hour before GST-RANKL 20 μg
  bone mass decrease caused by GST-RANKL (micro CT): suppressed
[1]; LFM-A13 20 mg/kg, p<0.01
  decrease in the trabecular number (Tb.N) resulting from GST-RANKL: significantly suppressed
  decrease in unit bone mass (BV/TV) caused by GST-RANKL: significantly suppressed
  increase in the eroded surface area (ES/BS) resulting from GST-RANKL: significantly suppressed
  increase in the osteoclast number (N.Oc/B.Pm) resulting from GST-RANKL: significantly suppressed
[1]; LFM-A13 20 mg/kg, p<0.05
  decrease in the trabecular width (Tb.Th) resulting from GST-RANKL: significantly suppressed
  increase in the serum Ca concentration resulting from GST-RANKL: significantly suppressed

## NCCCC(O)(P(=O)(O)O)P(=O)(O)O [alendronate]
[2]; 300 μg/kg s.c., p<0.05
  serum Ca concentration vs RANKL administration: significantly decreased
[2]; 300 μg/kg, p<0.01
  increase in the TRAP-5b concentration: significantly suppressed
[2]
  dose at which the effects were exhibited: 0.3 mg/kg

## CC(O)(P(=O)(O)O)P(=O)(O)O [etidronate]
[2]
  dose at which the effects were exhibited: 30 mg/kg

## O=C(c1ccc(OCCN2CCCCC2)cc1)c1c(-c2ccc(O)cc2)sc2cc(O)ccc12 [raloxifene]
[3]; among the all groups
  cancellous bone density (pQCT): no significant differences
[3]; raloxifene 1 mg/kg, 0.8 mm
  cortical bone mineral content increase in GST-RANKL+OVX group: 93%
  cortical bone thickness increase in GST-RANKL+OVX group: 101%
[3]; raloxifene 1 mg/kg, 1.0 mm
  cortical bone mineral content increase in GST-RANKL+OVX group: 136%
  cortical bone thickness increase in GST-RANKL+OVX group: 137%
  total bone density increase in GST-RANKL+OVX group: 10%
[3]; raloxifene 1 mg/kg, p<0.05
  serum ALP concentration: significantly decreased
[3]; raloxifene 10 mg/kg, 0.6 mm
  cortical bone mineral content increase in GST-RANKL+OVX group: 87%
  cortical bone thickness increase in GST-RANKL+OVX group: 92%
  total bone density increase in GST-RANKL+OVX group: 10%
[3]; raloxifene 10 mg/kg, 0.8 mm
  cortical bone mineral content increase in GST-RANKL+OVX group: 118%
  cortical bone thickness increase in GST-RANKL+OVX group: 123%
  total bone density increase in GST-RANKL+OVX group: 11%
[3]; raloxifene 10 mg/kg, 1.0 mm
  cortical bone mineral content increase in GST-RANKL+OVX group: 137%
  cortical bone thickness increase in GST-RANKL+OVX group: 133%
  total bone density increase in GST-RANKL+OVX group: 11%
[3]; raloxifene 10 mg/kg, p<0.01
  serum ALP concentration: significantly decreased
[3]; [7]
  serum Ca concentration: no significant changes
  serum TRAP-5b concentration: no significant changes

## O=P(O)(O)C(O)(Cc1cccnc1)P(=O)(O)O [risedronate]
[4]; risedronate 3 μg/kg s.c. every 24 hours
  serum TRAP-5b decrease vs RANKL alone: approximately 30%
[4]; risedronate 3 μg/kg, 0.6 mm
  bone density decrease suppressed to: 12%
[4]; risedronate 3 μg/kg, 0.8 mm
  bone density decrease suppressed to: 18%
[4]; risedronate 3 μg/kg, 1.0 mm
  bone density decrease suppressed to: 24%
[4]; risedronate 10 μg/kg s.c.
  serum TRAP-5b decrease vs RANKL alone: ~50%
[4]; risedronate 10 μg/kg, 0.6 mm
  bone density decrease suppressed to: 13%
[4]; risedronate 10 μg/kg, 0.8 mm
  bone density decrease suppressed to: 28%
[4]; risedronate 10 μg/kg, 1.0 mm
  bone density decrease suppressed to: 30%
[4]; risedronate 30 μg/kg
  serum ALP concentration vs RANKL alone: significantly decreased
[4]; risedronate 30 μg/kg s.c.
  serum TRAP-5b decrease vs RANKL alone: ~70%
[4]; risedronate 30 μg/kg, 0.6 mm
  bone density decrease suppressed to: 10%
[4]; risedronate 30 μg/kg, 0.8 mm
  bone density decrease suppressed to: 18%
[4]; risedronate 30 μg/kg, 1.0 mm
  bone density decrease suppressed to: 20%
[2]; 1 μg/kg s.c., p<0.01
  serum Ca concentration vs RANKL administration: significantly decreased
[2]; 1 μg/kg, p<0.05
  increase in the TRAP-5b concentration: significantly suppressed
[2]; 10 μg/kg, p<0.01
  increase in the TRAP-5b concentration: significantly suppressed
[2]; 100 μg/kg s.c., p<0.01
  serum Ca concentration vs RANKL administration: significantly decreased
[2]; 100 μg/kg, 0.6-mm point
  bone density decrease suppressed to: 1%
[2]; 100 μg/kg, p<0.01
  increase in the TRAP-5b concentration: significantly suppressed
[2]
  dose at which the effects were exhibited: 0.1 mg/kg
[5]; combination of GST-RANKL 426 nmol and risedronate 0.01 mg/kg s.c.
  serum CTx concentration decrease vs control group: approximately 30%
[5]; combination of GST-RANKL 426 nmol and risedronate 0.01 mg/kg s.c. every 24 hours
  serum TRAP-5b concentration decrease vs control group: approximately 30%
[5]; [8]
  femur bone density vs control: comparable to that for the control group
  serum alkaline phosphatase concentration vs control: did not change
  serum osteocalcin concentration vs control: did not change

B1: Soluble RANKL: Soluble RANKL (produced by Peprotech) (protein, UniProt O14788 69-317, looked up)
extracellular domain: YFRAQMDPNRISEDGTHCIYRILRLHENADFQDTTLESQDTKLIPDSCRRIKQAFQGAVQKELQHIVGSQHIRAEKAMVDGSWLDLAKRSKLEAQPFAHLTINATDIPSGSHKVSLSSWYHDRGWAKISNMTFSNGKLIVNQDGFYYLYANICFRHHETSGDLATEYLQLMVYVTKTSIKIPSSHTLMKGGSTKYWSGNSEFHFYSINVGGFFKLRSGEEISIEVSNPSLLDPDQDATYFGAFKVRDID
modifications: extracellular domain
[6]; 426 nmol
  femur bone density decrease: approximately 20%
  serum CTx concentration, fold as high: ~1.5 fold
  serum alkaline phosphatase concentration: did not vary
  serum osteocalcin concentration: did not vary
[6]; 426 nmol high dose i.p. 3 times
  serum calcium concentration, fold as high: approximately 1.4 fold
[6]; 426 nmol, no significant difference
  serum TRAP-5b concentration, fold as high: approximately 1.25 fold
